# Patent publication US12528816B2, “Substituted imidazo [1,2-b] pyridazines and [1, 2, 4] triazolo [ 4,3-b] pyridazines as camkii inhibitors” (Cardurion Pharmaceuticals, INC., priority 2020, dated 2026)
# Molecular target: T1, human CaMKIIδ (Homo sapiens, UniProt Q13557)
# T1 construct: Full-length, glutathione-S-transferase(GST)-tagged, human CaMKIIδ was purchased from Carna Biosciences; purchased Carna Biosciences (CaMKIIδ); Wako Pure Chemical Industries (calmodulin) 02-111
# Test: Evaluation of in vitro CaMKII inhibitory activity (binding assay, TR-FRET)
# Details: human CaMKIIδ, TR-FRET binding assay; class symbols A/B/C; read-out: Act (CaMKII inhibitory activity, binding assay)
# In short: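 Inhibitors, in eight concentrations of 4-fold dilution, were incubated 1 h at room temperature with a protein–fluorescent probe premix preformed 30 min on ice, containing calmodulin and terbium anti-GST antibody. Displacement read by TR-FRET in duplicate; IC50 by logistic fitting.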
row,Compound,IC50
1,C[C@@H](Cn1cnnn1)Oc1cc(-c2ccn3ncc(-c4ccc(C(F)F)cc4)c3n2)ccc1F [compound 132],10 to 100 nM
2,C[C@@H](Cn1cnnn1)Oc1cc(-c2ccn3ncc(-c4ccccc4Cl)c3n2)ccc1F [compound 133],10 to 100 nM
3,C[C@@H](Cn1cnnn1)Oc1cc(-c2ccn3ncc(-c4cccc(Cl)c4)c3n2)ccc1F [compound 134],< 10 nM
4,C[C@@H](Cn1cnnn1)Oc1cc(-c2ccn3ncc(-c4ccc(Cl)cc4)c3n2)ccc1F [compound 135],10 to 100 nM
5,C[C@@H](Cn1cnnn1)Oc1cc(-c2ccn3ncc(-c4ccc(C#N)cc4)c3n2)ccc1F [compound 136],10 to 100 nM
6,C[C@@H](Cn1cnnn1)Oc1cc(-c2ccn3ncc(-c4cccnc4C#N)c3n2)ccc1F [compound 137],< 10 nM
7,C[C@@H](Cn1cnnn1)Oc1cc(-c2ccn3ncc(-c4cnccc4C#N)c3n2)ccc1F [compound 138],< 10 nM
8,C[C@@H](Cn1cnnn1)Oc1cc(-c2ccn3ncc(-c4ccc(C#N)s4)c3n2)ccc1F [compound 139],< 10 nM
9,COc1ccnc(-c2cnn3ccc(-c4ccc(F)c(O[C@@H](C)Cn5cnnn5)c4)nc23)c1 [compound 140],10 to 100 nM
10,Cc1ncc(-c2cnn3ccc(-c4ccc(F)c(O[C@@H](C)Cn5cnnn5)c4)nc23)s1 [compound 141],< 10 nM
11,Cc1nn(C)cc1-c1cnn2ccc(-c3ccc(F)c(O[C@@H](C)Cn4cnnn4)c3)nc12 [compound 142],10 to 100 nM
12,Cc1c(-c2cnn3ccc(-c4ccc(F)c(O[C@@H](C)Cn5cnnn5)c4)nc23)cnn1C [compound 143],< 10 nM
13,C[C@@H](Cn1cnnn1)Oc1cc(-c2ccn3ncc(-c4cnn(C(F)F)c4)c3n2)ccc1F [compound 144],< 10 nM
14,C[C@@H](Cn1cnnn1)Oc1cc(-c2ccn3ncc(-c4cnn(CCN5CCOCC5)c4)c3n2)ccc1F [compound 145],10 to 100 nM
15,CCOC(=O)c1ccc(C#N)c(-c2cnc3ccc(-c4ccc(F)c(O[C@@H](C)Cn5cnnn5)c4)nn23)c1 [compound 146],< 10 nM
16,C[C@@H](Cn1cnnn1)Oc1cc(-c2ccc3ncc(-c4cc(C(=O)O)ccc4C#N)n3n2)ccc1F [compound 147],10 to 100 nM
17,C[C@@H](Cn1cnnn1)Oc1cc(-c2ccc3ncc(-c4cc(C(=O)NCCN5CCOCC5)ccc4C#N)n3n2)ccc1F [compound 148],10 to 100 nM
18,C[C@@H](Cn1cnnn1)Oc1cc(-c2ccn3ncc(-c4ccccc4C(F)F)c3n2)ccc1F [compound 149],10 to 100 nM
19,C[C@@H](Cn1cnnn1)Oc1cc(-c2ccc3ncn(-c4ccccc4C#N)c3n2)ccc1F [compound 151],< 10 nM
20,COc1c(C(=O)NCCN2CCOCC2)cccc1-c1cnn2ccc(-c3ccc(F)c(O[C@@H](C)Cn4cnnn4)c3)nc12 [compound 152],< 10 nM
21,"C[C@@H](Cn1cnnn1)Oc1cc(-c2ccc3ncn(-c4ccccn4)c3n2)ccc1F [compound 153, 2-[5-(4-fluoro-3-{[(2S)-1-(1H-tetrazol-1-yl)propan-2-yl]oxy}phenyl)-3H-imidazo[4,5-b]pyridin-3-yl]pyridine]",< 10 nM
22,C[C@@H](Cn1cnnn1)Oc1cc(-c2ccn3ncc(-c4cccc(F)c4C#N)c3n2)ccc1F [compound 154],< 10 nM

row,Compound,IC50
1,C[C@@H](Cn1cnnn1)Oc1cc(-c2ccn3ncc(-c4cccc(F)c4C(N)=O)c3n2)ccc1F [compound 155],10 to 100 nM
2,C[C@@H](Cn1cnnn1)Oc1cc(-c2ccn3ncc(-c4cncc(C#N)c4)c3n2)ccc1F [compound 156],< 10 nM
3,C[C@@H](Cn1cnnn1)Oc1cc(-c2ccn3ncc(-c4cc(F)ccc4C#N)c3n2)ccc1F [compound 157],< 10 nM
4,C[C@@H](Cn1cnnn1)Oc1cc(-c2ccn3ncc(-c4cc[nH]n4)c3n2)ccc1F [compound 158],< 10 nM
5,C[C@@H](Cn1cnnn1)Oc1cc(-c2ccc3ncn(-c4cccc(C#N)n4)c3n2)ccc1F [compound 159],< 10 nM
6,C[C@@H](Cn1cnnn1)Oc1cc(-c2ccn3ncc(-c4ccn(CCN5CCOCC5)n4)c3n2)ccc1F [compound 160],< 10 nM
7,C[C@@H](Cn1cnnn1)Oc1cc(-c2ccn3ncc(-c4ccn(CC#N)n4)c3n2)ccc1F [compound 161],< 10 nM
8,C[C@@H](Cn1cnnn1)Oc1cc(-c2ccn3ncc(-c4ccsc4C#N)c3n2)ccc1F [compound 162],< 10 nM
9,C[C@@H](Cn1cnnn1)Oc1cc(-c2ccn3ncc(-c4cnn(C)c4C#N)c3n2)ccc1F [compound 163],< 10 nM
10,C[C@@H](Cn1cnnn1)Oc1cc(-c2ccn3ncc(-c4cn(C)nc4C#N)c3n2)ccc1F [compound 164],< 10 nM
11,C[C@@H](Cn1cnnn1)Oc1cccc(-c2ccn3ncc(-c4cccc(C(=O)NS(=O)(=O)C5CC5)c4)c3n2)c1 [compound 165],< 10 nM
12,COc1ncccc1-c1cnn2ccc(-c3ccc(F)c(O[C@@H](C)Cn4cnnn4)c3)nc12 [compound 166],< 10 nM
13,C[C@@H](Cn1cnnn1)Oc1cc(-c2ccn3ncc(-c4ccc[nH]c4=O)c3n2)ccc1F [compound 167],< 10 nM
14,CNC(=O)c1ccc(C#N)c(-c2cnc3ccc(-c4ccc(F)c(O[C@@H](C)Cn5cnnn5)c4)nn23)c1 [compound 168],< 10 nM
15,COCOc1cccc(-c2cnc3ccc(-c4ccc(F)c(O[C@@H](C)Cn5cnnn5)c4)nn23)c1C#N [compound 169],< 10 nM
16,C[C@@H](Cn1cnnn1)Oc1cc(-c2ccc3ncc(-c4cccc(O)c4C#N)n3n2)ccc1F [compound 170],< 10 nM
17,C[C@@H](Cn1cnnn1)Oc1cc(-c2ccc3ncc(-c4cccc(OCCCN5CCOCC5)c4C#N)n3n2)ccc1F [compound 171],< 10 nM
18,COCCCOc1cccc(-c2cnc3ccc(-c4ccc(F)c(O[C@@H](C)Cn5cnnn5)c4)nn23)c1C#N [compound 172],< 10 nM
19,COc1ncccc1-n1cnc2ccc(-c3ccc(F)c(O[C@@H](C)Cn4cnnn4)c3)nc21 [compound 174],10 to 100 nM
20,C[C@@H](Cn1cnnn1)Oc1cc(-c2ccc3ncn(-c4ccc[nH]c4=O)c3n2)ccc1F [compound 175],10 to 100 nM
21,C[C@@H](Cn1cnnn1)Oc1cc(-c2ccc3ncn(-c4cccn(C)c4=O)c3n2)ccc1F [compound 176],10 to 100 nM
22,C[C@@H](Cn1cnnn1)Oc1cc(-c2ccc3ncc(-c4cccc(OCC#N)c4C#N)n3n2)ccc1F [compound 177],< 10 nM

row,Compound,IC50
1,C[C@@H](Cn1cnnn1)Oc1cc(-c2ccc3ncc(-c4cccc(OC5CCNC5=O)c4C#N)n3n2)ccc1F (stereo partly drawn) [compound 178],< 10 nM
2,COC(=O)c1cccc(-n2cnc3ccc(-c4ccc(F)c(O[C@@H](C)Cn5cnnn5)c4)nc32)c1C#N [compound 179],10 to 100 nM
3,COCCNc1cccc(-c2cnn3ccc(-c4ccc(F)c(O[C@@H](C)Cn5cnnn5)c4)nc23)c1C#N [compound 180],< 10 nM
4,C[C@@H](Cn1cnnn1)Oc1cc(-c2ccc3ncc(-c4cccc(N)c4C#N)n3n2)ccc1F [compound 181],< 10 nM
5,COCCC(=O)Nc1cccc(-c2cnc3ccc(-c4ccc(F)c(O[C@@H](C)Cn5cnnn5)c4)nn23)c1C#N [compound 182],< 10 nM
6,C#Cc1ccccc1-c1cnc2ccc(-c3ccc(F)c(O[C@@H](C)Cn4cnnn4)c3)nn12 [compound 183],< 10 nM
7,C[C@@H](Cn1cnnn1)Oc1cc(-c2ccc3ncc(-c4cc(C(N)=O)ccc4C(N)=O)n3n2)ccc1F [compound 184],> 100 nM
8,C[C@@H](Cn1cnnn1)Oc1cc(-c2ccc3ncc(-c4cc(C#N)ccc4C#N)n3n2)ccc1F [compound 185],< 10 nM
9,C[C@@H](Cn1cnnn1)Oc1cc(-c2ccc3ncc(-c4cccc(C#N)c4C#N)n3n2)ccc1F [compound 186],< 10 nM
10,C[C@@H](Cn1cnnn1)Oc1cc(-c2ccc3ncc(-c4cc(Br)cc5c4OCC5)n3n2)ccc1F [compound 187],< 10 nM
11,COC(=O)c1cccc(-n2cnc3ccc(-c4ccc(F)c(O[C@@H](C)Cn5cnnn5)c4)nc32)n1 [compound 188],< 10 nM
12,C[C@@H](Cn1cnnn1)Oc1cc(-c2ccc3ncn(-c4cccc(C(=O)O)c4C#N)c3n2)ccc1F [compound 189],10 to 100 nM
13,C=Cc1ccccc1-c1cnc2ccc(-c3ccc(F)c(O[C@@H](C)Cn4cnnn4)c3)nn12 [compound 190],< 10 nM
14,C[C@@H](Cn1cnnn1)Oc1cc(-c2ccc3ncc(-c4cccc(N=S(C)(C)=O)c4C#N)n3n2)ccc1F [compound 191],< 10 nM
15,COCCN1C(=O)c2cccc(-n3cnc4ccc(-c5ccc(F)c(O[C@@H](C)Cn6cnnn6)c5)nc43)c2C1=O [compound 192],> 100 nM
16,C[C@@H](Cn1cnnn1)Oc1cc(-c2ccc3ncn(-c4cccc5c4C(=O)N(C)C5=O)c3n2)ccc1F [compound 193],> 100 nM
17,C[C@@H](Cn1cnnn1)Oc1cc(-c2ccc3ncc(-c4cccnc4N)n3n2)ccc1F [compound 194],10 to 100 nM
18,"CC(Cn1cnnn1)Oc1cc(-c2ccc3ncc(-c4cccc(OC5CCC(N6CC(C)OC(C)C6)CC5)c4C#N)n3n2)ccc1F [compound 195, 2-[6-(4-fluoro-3-{[(2S)-1-(1H-tetrazol-1-yl)propan-2-yl]oxy}phenyl)imidazo[1,2-b]pyridazin-3-yl]-6-{[(1r,4r)-4-[(2R,6S)-2,6-dimethylmorpholin-4-yl]cyclohexyl]oxy}benzonitrile]",< 10 nM
19,C[C@@H](Cn1cnnn1)Oc1cc(-c2ccc3ncc(-c4cccn(C)c4=O)n3n2)ccc1F [compound 196],< 10 nM
20,COc1cccc(-c2cnc3ccc(-c4ccc(F)c(O[C@@H](C)Cn5cnnn5)c4)nn23)c1C#N [compound 197],< 10 nM
21,C[C@@H](Cn1cnnn1)Oc1cc(-c2ccc3ncc(-c4cccc(OCC5CCNC5=O)c4C#N)n3n2)ccc1F (stereo partly drawn) [compound 198],< 10 nM
22,C[C@@H](Cn1cnnn1)Oc1cc(-c2ccc3ncc(-c4cccc(OCC5CNC(=O)C5)c4C#N)n3n2)ccc1F (stereo partly drawn) [compound 199],< 10 nM
